Data reported in ChEMBL document CHEMBL1201862, “PubChem BioAssay data set” (2004).
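Interpolation was linear, between the two tested concentrations surrounding the appropriate level; five concentrations were tested over 48 hours in 96-well plates. At the GI50, growth is halved.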 Active and inactive are the calls of the source. Cut-off read from the data, not from the text of the source: active = GI50 up to about 1.1 µM and inactive = higher.

Assays:
Assay in all cases: NCI-60 cell line screen, 48 h
786-0 = tested on: 786-0
A498 = tested on: A498
A549 = tested on: A549
ACHN = tested on: ACHN
CAKI-1 = tested on: CAKI-1
CCRF-CEM = tested on: CCRF-CEM
COLO 205 = tested on: COLO 205
DLD-1 = tested on: DLD-1
DMS-114 = tested on: DMS-114
DMS-273 = tested on: DMS-273
EKVX = tested on: EKVX
HCC 2998 = tested on: HCC 2998
HCT-116 = tested on: HCT-116
HCT-15 = tested on: HCT-15
HL-60 = tested on: HL-60
HOP-18 = tested on: HOP-18
HOP-62 = tested on: HOP-62
HOP-92 = tested on: HOP-92
HT-29 = tested on: HT-29
IGROV-1 = tested on: IGROV-1
K562 = tested on: K562
KM-20L2 = tested on: KM-20L2
KM12 = tested on: KM12
LOX IMVI = tested on: LOX IMVI
LXFL 529 = tested on: LXFL 529
M14 = tested on: M14
M19-MEL = tested on: M19-MEL
MOLT-4 = tested on: MOLT-4
Malme-3M = tested on: Malme-3M
NCI-H226 = tested on: NCI-H226
NCI-H23 = tested on: NCI-H23
NCI-H460 = tested on: NCI-H460
NCI-H522 = tested on: NCI-H522
OVCAR-4 = tested on: OVCAR-4
OVCAR-5 = tested on: OVCAR-5
OVCAR-8 = tested on: OVCAR-8
RPMI-8226 = tested on: RPMI-8226
RXF 393 = tested on: RXF 393
RXF 631 = tested on: RXF 631
SF-268 = tested on: SF-268
SF-295 = tested on: SF-295
SF-539 = tested on: SF-539
SK-MEL-28 = tested on: SK-MEL-28
SK-MEL-2 = tested on: SK-MEL-2
SK-MEL-5 = tested on: SK-MEL-5
SK-OV-3 = tested on: SK-OV-3
SN12C = tested on: SN12C
SNB-19 = tested on: SNB-19
SNB-75 = tested on: SNB-75
SNB-78 = tested on: SNB-78
SR = tested on: SR
SW-620 = tested on: SW-620
TK-10 = tested on: TK-10
U-251 = tested on: U-251
UACC-257 = tested on: UACC-257
UACC-62 = tested on: UACC-62
UO-31 = tested on: UO-31
XF498 = tested on: XF498
OVCAR-3 = tested on: OVCAR-3

COc1ccccc1NC(=O)C(=O)C(c1cnc2ccc([N+](=O)[O-])cc2n1)[N+](=O)[O-] (stereo not drawn)
GI50 (786-0): > 100 µM (inactive)
GI50 (A498): > 100 µM (inactive)
GI50 (A549): > 100 µM (inactive)
GI50 (ACHN): 87.3 µM (inactive)
GI50 (CAKI-1): > 100 µM (inactive)
GI50 (CCRF-CEM): 26 µM (inactive)
GI50 (COLO 205): 38.3 µM (inactive)
GI50 (DLD-1): > 100 µM (inactive)
GI50 (DMS-114): 17.9 µM (inactive)
GI50 (DMS-273): 64 µM (inactive)
GI50 (EKVX): > 100 µM (inactive)
GI50 (HCC 2998): 92 µM (inactive)
GI50 (HCT-116): > 100 µM (inactive)
GI50 (HCT-15): > 100 µM
GI50 (HL-60): 19.5 µM (inactive)
GI50 (HOP-18): > 100 µM (inactive)
GI50 (HOP-62): > 100 µM (inactive)
GI50 (HOP-92): > 100 µM (inactive)
GI50 (HT-29): > 100 µM (inactive)
GI50 (IGROV-1): > 100 µM (inactive)
GI50 (K562): 31.5 µM (inactive)
GI50 (KM-20L2): > 100 µM (inactive)
GI50 (KM12): > 100 µM (inactive)
GI50 (LOX IMVI): > 100 µM (inactive)
GI50 (LXFL 529): 75 µM (inactive)
GI50 (M14): 78.7 µM (inactive)
GI50 (M19-MEL): > 100 µM (inactive)
GI50 (MOLT-4): 32.8 µM (inactive)
GI50 (Malme-3M): > 100 µM (inactive)
GI50 (NCI-H226): > 100 µM (inactive)
GI50 (NCI-H23): > 100 µM (inactive)
GI50 (NCI-H460): > 100 µM (inactive)
GI50 (NCI-H522): 8.71 µM (inactive)
GI50 (OVCAR-4): > 100 µM (inactive)
GI50 (OVCAR-5): > 100 µM (inactive)
GI50 (OVCAR-8): > 100 µM (inactive)
GI50 (RPMI-8226): 25.2 µM (inactive)
GI50 (RXF 393): > 100 µM (inactive)
GI50 (RXF 631): 39.2 µM (inactive)
GI50 (SF-268): > 100 µM (inactive)
GI50 (SF-295): > 100 µM (inactive)
GI50 (SF-539): > 100 µM (inactive)
GI50 (SK-MEL-28): > 100 µM (inactive)
GI50 (SK-MEL-2): > 100 µM (inactive)
GI50 (SK-MEL-5): > 100 µM (inactive)
GI50 (SK-OV-3): > 100 µM (inactive)
GI50 (SN12C): > 100 µM (inactive)
GI50 (SNB-19): > 100 µM (inactive)
GI50 (SNB-75): > 100 µM (inactive)
GI50 (SNB-78): > 100 µM (inactive)
GI50 (SR): 45.6 µM (inactive)
GI50 (SW-620): > 100 µM (inactive)
GI50 (TK-10): > 100 µM (inactive)
GI50 (U-251): > 100 µM (inactive)
GI50 (UACC-257): > 100 µM (inactive)
GI50 (UACC-62): 53 µM (inactive)
GI50 (UO-31): 78 µM (inactive)
GI50 (XF498): > 100 µM (inactive)

CC1=C[C@@H]2Cc3occc3C(C)(C)[C@@H]2CC1
GI50 (786-0): 19.4 µM (inactive)
GI50 (A498): 21.8 µM (inactive)
GI50 (A549): 22.9 µM (inactive)
GI50 (ACHN): 16 µM (inactive)
GI50 (CAKI-1): 23.4 µM (inactive)
GI50 (CCRF-CEM): 18.3 µM (inactive)
GI50 (COLO 205): 18.9 µM (inactive)
GI50 (DLD-1): 17.7 µM (inactive)
GI50 (DMS-114): 20.2 µM (inactive)
GI50 (DMS-273): 13.6 µM (inactive)
GI50 (EKVX): 18 µM (inactive)
GI50 (HCC 2998): 21.4 µM (inactive)
GI50 (HCT-116): 19.4 µM (inactive)
GI50 (HL-60): 19.3 µM (inactive)
GI50 (HOP-18): 23.6 µM (inactive)
GI50 (HOP-62): 32.4 µM (inactive)
GI50 (HOP-92): 19.5 µM (inactive)
GI50 (HT-29): 16.6 µM (inactive)
GI50 (IGROV-1): > 10 µM (inactive)
GI50 (K562): 21.1 µM (inactive)
GI50 (KM-20L2): 18.5 µM (inactive)
GI50 (KM12): 16.9 µM (inactive)
GI50 (LOX IMVI): 19.2 µM (inactive)
GI50 (LXFL 529): 37.5 µM (inactive)
GI50 (M14): 22.3 µM (inactive)
GI50 (M19-MEL): 15.6 µM (inactive)
GI50 (MOLT-4): 19.6 µM (inactive)
GI50 (Malme-3M): 20 µM (inactive)
GI50 (NCI-H226): 17.9 µM (inactive)
GI50 (NCI-H23): 24.5 µM (inactive)
GI50 (NCI-H522): 14.7 µM (inactive)
GI50 (OVCAR-3): 17.7 µM (inactive)
GI50 (OVCAR-4): 29.4 µM (inactive)
GI50 (OVCAR-5): 22.8 µM (inactive)
GI50 (OVCAR-8): 19.5 µM (inactive)
GI50 (RXF 393): 18.7 µM (inactive)
GI50 (RXF 631): 20.4 µM (inactive)
GI50 (SF-268): 20.2 µM (inactive)
GI50 (SF-295): 19.5 µM (inactive)
GI50 (SF-539): 23.8 µM (inactive)
GI50 (SK-MEL-28): 24 µM (inactive)
GI50 (SK-MEL-2): 10.9 µM (inactive)
GI50 (SK-MEL-5): 17.9 µM (inactive)
GI50 (SK-OV-3): 38.1 µM (inactive)
GI50 (SN12C): 15.8 µM (inactive)
GI50 (SNB-19): > 10 µM (inactive)
GI50 (SNB-75): 18.1 µM (inactive)
GI50 (SNB-78): 27.7 µM (inactive)
GI50 (SR): 14.5 µM (inactive)
GI50 (SW-620): 17.1 µM (inactive)
GI50 (TK-10): 22.4 µM (inactive)
GI50 (U-251): 18.5 µM (inactive)
GI50 (UACC-257): 22.5 µM (inactive)
GI50 (UACC-62): > 10 µM (inactive)
GI50 (UO-31): 19.2 µM (inactive)
GI50 (XF498): 15.3 µM (inactive)

N#C/N=C(/N)NCO
GI50 (786-0): > 43.8 µM (inactive)
GI50 (A498): > 100 µM (inactive)
GI50 (A549): > 57.4 µM (inactive)
GI50 (ACHN): > 100 µM (inactive)
GI50 (CAKI-1): > 100 µM (inactive)
GI50 (CCRF-CEM): > 100 µM (inactive)
GI50 (COLO 205): > 42.1 µM (inactive)
GI50 (DLD-1): > 54 µM (inactive)
GI50 (DMS-114): > 43 µM (inactive)
GI50 (DMS-273): > 90.4 µM (inactive)
GI50 (EKVX): > 100 µM (inactive)
GI50 (HCC 2998): > 100 µM (inactive)
GI50 (HCT-116): > 46 µM (inactive)
GI50 (HCT-15): > 40 µM
GI50 (HL-60): > 100 µM (inactive)
GI50 (HOP-18): > 100 µM (inactive)
GI50 (HOP-62): > 100 µM (inactive)
GI50 (HOP-92): > 100 µM (inactive)
GI50 (HT-29): > 64.1 µM (inactive)
GI50 (IGROV-1): > 100 µM (inactive)
GI50 (K562): > 76 µM (inactive)
GI50 (KM-20L2): > 51.4 µM (inactive)
GI50 (KM12): > 40 µM (inactive)
GI50 (LOX IMVI): > 39.9 µM (inactive)
GI50 (LXFL 529): > 63.1 µM (inactive)
GI50 (M14): > 100 µM (inactive)
GI50 (M19-MEL): > 60.5 µM (inactive)
GI50 (MOLT-4): > 100 µM (inactive)
GI50 (Malme-3M): > 100 µM (inactive)
GI50 (NCI-H226): > 100 µM (inactive)
GI50 (NCI-H23): > 100 µM (inactive)
GI50 (NCI-H460): > 78 µM (inactive)
GI50 (NCI-H522): > 100 µM (inactive)
GI50 (OVCAR-3): > 100 µM (inactive)
GI50 (OVCAR-4): > 100 µM (inactive)
GI50 (OVCAR-5): > 100 µM (inactive)
GI50 (OVCAR-8): > 100 µM (inactive)
GI50 (RPMI-8226): > 48.2 µM (inactive)
GI50 (RXF 393): 16.5 µM (inactive)
GI50 (RXF 631): > 100 µM (inactive)
GI50 (SF-268): 63.5 µM (inactive)
GI50 (SF-295): > 100 µM (inactive)
GI50 (SF-539): > 100 µM (inactive)
GI50 (SK-MEL-28): > 100 µM (inactive)
GI50 (SK-MEL-2): > 100 µM (inactive)
GI50 (SK-MEL-5): > 100 µM (inactive)
GI50 (SK-OV-3): > 100 µM (inactive)
GI50 (SN12C): > 100 µM (inactive)
GI50 (SNB-19): > 100 µM (inactive)
GI50 (SNB-75): > 100 µM (inactive)
GI50 (SNB-78): > 100 µM (inactive)
GI50 (SR): 9.29 µM (inactive)
GI50 (SW-620): > 37.8 µM (inactive)
GI50 (TK-10): > 100 µM (inactive)
GI50 (U-251): > 53.7 µM (inactive)
GI50 (UACC-257): > 100 µM (inactive)
GI50 (UACC-62): > 100 µM (inactive)
GI50 (UO-31): > 100 µM (inactive)
GI50 (XF498): > 60.8 µM (inactive)
